Measurements as given in US20060025380A1, “Formulations for non-parenteral use including hydrophobic cyclodextrins” (deCODE Chemistry Inc, priority 2004, published 2006).

Assay: Solubility of drug in aqueous cyclodextrin complexation media (dissolved drug by HPLC)
Assay type: physicochemical
Experimental: General procedure: Zero to 40% w/v of various cyclodextrins were dissolved in 0.25% (w/v) PVP polymer, 50 mM MgCl2 solutions with 50 to 150 mM of various amino acids, resulting in an aqueous complexation media. An excess amount of drug was added to the aqueous complexation media, with the suspension formed then sonicated for 60 minutes at 75° C. (some drugs can also be heated at 121° C. for 20 minutes in autoclave). After an equilibrium period, the drug suspensions were filtered and the amount of dissolved drug was determined by HPLC.
To provide further information as to a specific example, production of the third camptothecin formulation (with proline) listed below is described. 20% w/v of randomly methylated β-cyclodextrin was dissolved in 0.25% (w/v) CMC polymer, 50 mM MgCl2 solutions with 50 mM of Proline and 0.02M HCl (buffer). The drug concentration was 0.526±0.009 mg/ml.
To provide further information as to a specific example, production of the first trichlocarban formulation (with lysine) listed below is described. 20% w/v of randomly methlyated β-cyclodextrin was dissolved in 0.25% (w/v) PVP polymer, 50 mM MgCl2 solutions with 50 mM of L-Lysine hydrochloride. The drug concentration was 5.72±0.07 mg/ml.

Row | Structure (SMILES) | Camptotechin (CPT) 20% RMβCD (50 mM Proline, 0.25% (w/v) CMC polymer, 50 mM MgCl2, 0.02M HCl) | Camptotechin (CPT) 20% RMβCD (50 mM Proline, 0.25% (w/v) CMC polymer, 50 mM MgCl2, 0.02M HCl, listed as camptothecin) | Camptotechin (CPT) 20% RMβCD (Cysteine) | Camptotechin (CPT) 20% RMβCD (Lysine) | Camptotechin (CPT) 20% RMβCD (No amino acid) | Camptotechin (CPT) 20% RMβCD (Tryptophan) | Camptotechin (CPT) 40% HPβCD (40% HPβCD (first column so headed, c2), Lysine) | Camptotechin (CPT) 40% HPβCD (40% HPβCD (second column so headed, c3), Lysine) | Trichlocarban (TCC) solubility, CD + poly | Trichlocarban (TCC) solubility, CD no AA | solubility of TCC with adipic acid | solubility of TCC with poly-lysine
1 | CC[C@@]1(O)C(=O)OCc2c1cc1n(c2=O)Cc2cc3ccccc3nc2-1 [Camptotechin, camptothecin] | 0.526 ± 0.009 mg/mL | 0.526 ± 0.009 mg/mL | 0.334 ± 0.025 mg/mL | 0.285 ± 0.010 mg/mL | 0.228 ± 0.009 mg/mL | 0.375 ± 0.002 mg/mL | 0.493 ± 0.015 mg/mL | 0.439 ± 0.022 mg/mL |  |  |  | 
2 | O=C(Nc1ccc(Cl)cc1)Nc1ccc(Cl)c(Cl)c1 [Trichlocarban, trichlocarban] |  |  |  |  |  |  |  |  | 2300 ± 240 µg/mL | 2050 ± 150 µg/mL | 5190 ± 210 µg/mL | 4810 ± 210 µg/mL
